We go through six compounds from patent publication US8501936B2 (priority 2009, dated 2013).

Like-named read-outs stand apart in the source and are kept apart here.

In assay [1] the target is T1, human FAK (Homo sapiens (Human), UniProt Q05397). The conditions noted are these: read-out: FAK IC50.
Assay [2] addresses T2, human JAK2 (Homo sapiens (Human), UniProt O60674). Nature of the assay: biochemical.
In assay [3] the target is T1, human FAK. Nature of the assay: biochemical.
Assay [4] has as its target T2, human JAK2. The conditions noted are these: read-out: JAK2 IC50.

T2 sequence (O60674 815-1132): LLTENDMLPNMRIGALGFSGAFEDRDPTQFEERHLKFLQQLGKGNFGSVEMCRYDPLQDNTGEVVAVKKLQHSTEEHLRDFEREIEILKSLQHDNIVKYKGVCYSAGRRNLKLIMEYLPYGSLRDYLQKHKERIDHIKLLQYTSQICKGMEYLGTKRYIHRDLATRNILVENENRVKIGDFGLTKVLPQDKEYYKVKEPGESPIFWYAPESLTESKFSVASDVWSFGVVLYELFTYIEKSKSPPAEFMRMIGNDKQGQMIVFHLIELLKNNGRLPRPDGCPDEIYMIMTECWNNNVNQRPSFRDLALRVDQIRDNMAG
T1 sequence (Q05397 whole entry): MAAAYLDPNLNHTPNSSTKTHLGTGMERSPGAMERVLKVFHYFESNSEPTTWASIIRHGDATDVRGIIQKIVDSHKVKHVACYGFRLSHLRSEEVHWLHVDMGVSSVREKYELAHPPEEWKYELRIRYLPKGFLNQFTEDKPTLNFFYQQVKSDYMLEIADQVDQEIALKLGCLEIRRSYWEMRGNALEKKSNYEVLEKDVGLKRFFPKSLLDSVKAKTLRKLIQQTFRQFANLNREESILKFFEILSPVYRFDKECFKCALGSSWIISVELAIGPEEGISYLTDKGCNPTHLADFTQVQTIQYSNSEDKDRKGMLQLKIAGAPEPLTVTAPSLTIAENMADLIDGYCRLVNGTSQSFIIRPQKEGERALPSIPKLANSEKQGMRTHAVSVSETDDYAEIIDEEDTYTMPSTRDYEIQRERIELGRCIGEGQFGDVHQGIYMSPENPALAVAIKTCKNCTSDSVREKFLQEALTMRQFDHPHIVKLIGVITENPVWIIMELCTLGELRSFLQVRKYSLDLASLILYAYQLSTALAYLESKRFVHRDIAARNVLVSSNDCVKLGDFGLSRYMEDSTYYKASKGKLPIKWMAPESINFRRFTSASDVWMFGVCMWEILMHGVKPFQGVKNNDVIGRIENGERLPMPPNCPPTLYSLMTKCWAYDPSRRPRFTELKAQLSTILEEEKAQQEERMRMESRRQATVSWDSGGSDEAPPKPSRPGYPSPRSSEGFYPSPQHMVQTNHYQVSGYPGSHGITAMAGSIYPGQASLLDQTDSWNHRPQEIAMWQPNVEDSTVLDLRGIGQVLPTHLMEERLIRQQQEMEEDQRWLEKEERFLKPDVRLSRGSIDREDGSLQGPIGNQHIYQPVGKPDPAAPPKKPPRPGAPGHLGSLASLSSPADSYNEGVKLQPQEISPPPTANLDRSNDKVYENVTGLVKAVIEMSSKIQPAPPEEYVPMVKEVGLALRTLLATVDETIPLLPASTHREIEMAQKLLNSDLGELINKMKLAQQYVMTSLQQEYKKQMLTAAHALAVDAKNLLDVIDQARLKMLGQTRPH

With `CS(=O)(=O)c1ccc(-c2cccn3nc(Nc4cccc(N5CCC(N6CCOCC6)CC5)c4)nc23)cc1` [Example 57, [8-(4-Methanesulfonyl-phenyl)-[1,2,4]triazolo[1,5-a]pyridin-2-yl]-[3-(4-morpholin-4-yl-piperidin-1-yl)-phenyl]-amine], the IC50 on human FAK [1] came to 1.18 µM; against human JAK2 [2], 0.0005 µM.

Consider `CS(=O)(=O)c1ccc(-c2cccn3nc(Nc4cccc([C@@H]5CCNC[C@@H]5O)c4)nc23)cc1` (racemic) [Example 188, (±)-(cis)-4-{3-[8-(4-Methanesulfonyl-phenyl)-[1,2,4]triazolo[1,5-a]pyridin-2-ylamino]-phenyl}-piperidin-3-ol], for which the IC50 on human FAK [3] came out at 1.94 µM; against human JAK2 [2], 0.00143 µM.

`CN1CCC(c2cccc(Nc3nc4c(-c5ccc(S(C)(=O)=O)cc5)cccn4n3)c2)CC1` [Example 61, [8-(4-Methanesulfonyl-phenyl)-[1,2,4]triazolo[1,5-a]pyridin-2-yl]-[3-(1-methyl-piperidin-4-yl)-phenyl]-amine]: the IC50 at human JAK2 [4] worked out at 0.0007 µM; on human FAK [1] it was 0.265 µM.

In the case of `CS(=O)(=O)c1ccc(-c2cccn3nc(Nc4ccc(OCCN5CCCC5)cc4)nc23)cc1` [Example 10, [8-(4-Methanesulfonyl-phenyl)-[1,2,4]triazolo[1,5-a]pyridin-2-yl]-[4-(2-pyrrolidin-1-yl-ethoxy)-phenyl]-amine], the figures for the IC50 on human JAK2 [4] and on human FAK [1] were 0.001 µM and 0.206 µM, respectively.

Take `COc1ccc(C(F)(F)F)cc1-c1cccn2nc(Nc3ccc4c(c3)CCN(CCS(C)(=O)=O)CC4)nc12` [Example 322, [3-(2-Methanesulfonyl-ethyl)-2,3,4,5-tetrahydro-1H-3-benzazepin-7-yl]-[8-(2-methoxy-5-trifluoromethyl-phenyl)-[1,2,4]triazolo[1,5-a]pyridine-2-yl]-amine]: the IC50 at human JAK2 [4] amounted to 0.0127 µM; at human FAK [1], 0.572 µM.

As to `CS(=O)(=O)c1cccc(-c2cccc3nc(Nc4ccc(N5CCOCC5)cc4)nn23)c1` [Example 78, [5-(3-Methanesulfonyl-phenyl)-[1,2,4]triazolo[1,5-a]pyridin-2-yl]-(4-morpholin-4-yl-phenyl)-amine], the IC50 at human JAK2 [4] is 0.0032 µM; at human FAK [1], 1.53 µM.
